Laboratory results reported in patent publication US8268809B2, “Kinase inhibitors for preventing or treating pathogen infection and method of use thereof” (priority 2006, dated 2012).

Legend:
[1] = test system: gamma-herpes variant that expresses GFP under a CMV promoter (GHV-Bac-GFP); assay: Herpes virus assay: GHV-Bac-GFP infection of 3T3 monolayers, cytopathic effect and GFP spread; format: cell-based, gamma-herpes virus; conditions: for Herpes phenotype group / HERPES: 3T3 cells, GHV-Bac-GFP; for Herpes phenotype group: 10 μM, after 7 days; for HERPES: compound 10 μM, 7 days
Experimental: All herpes viruses share the property of establishing life-long infection in their host. […] To determine whether tyrosine kinases participate in gamma-herpes virus infections, confluent monolayers of 3T3 cells were exposed and plated in optical 96 well dishes to the library of compounds of the present invention described herein for 1 hour. The cells were then infected with a gamma-herpes variant that expresses GFP under a CMV promoter (GHV-Bac-GFP), and replaced the compounds of the present invention at final concentration of 10 μM.

vaccinia virus [2] = format: cell-based
vaccinia virus [3] = conditions: background statement, Reeves et al. 2005; cited from earlier work
vaccinia virus [4] = format: cell-based; remark: listed apart in the source

Row | SMILES | Herpes phenotype group [1] | HERPES [1] | VACCINIA Plaque Assay (vaccinia virus [2]) | other results
1 | CC(=O)Nc1ccc(-c2ccc3c(-c4ccc(Br)cc4F)n[nH]c3n2)cc1 [APcK-21] | (iii) | DE- LAYED CPE | – | –
2 | CC(=O)Nc1ccc(-c2ccc3c(-c4ccc(Cl)c(Cl)c4)n[nH]c3n2)cc1 [APcK-25] | (iii) | DE- LAYED CPE | – | –
3 | O=C(c1ccccc1)c1ccc(-c2ccc3c(-c4ccc(F)cc4)n[nH]c3n2)cc1 [APcK-36] | (iii) | DE- LAYED CPE | – | –
4 | CC(=O)Nc1cccc(-c2ccc3c(-c4ccc(Cl)c(Cl)c4)n[nH]c3n2)c1 [APcK-42] | (iii) | DE- LAYED CPE | – | –
5 | CC(=O)Nc1cccc(-c2ccc3c(-c4ccc(Br)c(F)c4)n[nH]c3n2)c1 [APcK-43] | – | DE- LAYED CPE | NO PLAQUES | Effects in Herpes assay [1]: had effects; Class category of infected monolayers in plaque assay (vaccinia virus [2]): Class III; Effects in Vaccinia assays (vaccinia virus [2]): had effects; VACCINIA PLAQUE ASSAY 2 (vaccinia virus [2]): NO PLAQUES
6 | CCOC(=O)c1ccc(-c2ccc3c(-c4ccc(Br)cc4F)n[nH]c3n2)cc1 [APcK-50] | (iii) | DE- LAYED CPE | – | –
7 | CCOC(=O)c1ccc(-c2ccc3c(-c4ccc(C)c(F)c4)n[nH]c3n2)cc1 [APcK-51] | (iii) | DE- LAYED CPE | – | –
8 | CCOC(=O)c1ccc(-c2ccc3c(-c4ccc(F)cc4)n[nH]c3n2)cc1 [APcK-53] | (iii) | DE- LAYED CPE | – | –
9 | CC(=O)Nc1cccc(-c2ccc3c(-c4ccc(F)cc4)n[nH]c3n2)c1 [APcK-103] | (iii) | DE- LAYED CPE | NO PLAQUES | Effects in Herpes assay [1]: had effects; Class category of infected monolayers in plaque assay (vaccinia virus [2]): Class III; Effects in Vaccinia assays (vaccinia virus [2]): had effects; VACCINIA PLAQUE ASSAY 2 (vaccinia virus [2]): NO PLAQUES
10 | Cc1ccc(NC(=O)c2ccc(CN3CCOCC3)cc2)cc1Nc1nccc(-c2cccnc2)n1 [CGP51148 WBZ-4] | (iii) | DE- LAYED CPE | – | –
11 | Cc1ccc(NC(=O)c2ccc(CN3CCN(C)CC3)cc2)cc1Nc1nccc(-c2cccnc2)n1 [CGP-2, reference compound] | (ii) | ENTRY OR EGRESS INHIB- ITOR | – | Plaque phenotype of known Abl-/Src-family kinase inhibitors (vaccinia virus [3]): somewhat reduced plaque size and loss of comets
12 | COc1ccccc1NS(=O)(=O)c1cccc(Nc2cc(-c3ccc(Cl)cc3)ncn2)c1 [Eph2_wbz 115] | – | DE- LAYED CPE | – | –
13 | COc1ccccc1Nc1cc(-c2ccc([N+](=O)[O-])cc2)ncn1 [Eph2_wbz 203] | – | – | SMALL PLAQUES, STILL SEE COMETS | Actin protein tails (vaccinia virus [4]): wild-type actin protein tails; Class category of infected monolayers in plaque assay (vaccinia virus [2]): Class III; Plaque phenotype due to drug treatment (FIGS. 1, 2, 4) (vaccinia virus [2]): small plaques with comets; VACCINIA PLAQUE ASSAY 2 (vaccinia virus [2]): SMALL PLAQUES
14 | Brc1cnc2c(Nc3ccccc3)nccn12 [LG2-55] | (iii) | DE- LAYED CPE | PINPOINT PLAQUES | Effects in Herpes assay [1]: had effects; Effects in Vaccinia assays (vaccinia virus [2]): had effects
15 | Nc1cccc(-c2ccc3nnc(-c4ccco4)n3n2)c1 [LG2-71] | (ii) | ENTRY OR EGRESS INHIB- ITOR | SMALL PLAQUES, WITH COMETS | Effects in Herpes assay [1]: had effects; Class category of infected monolayers in plaque assay (vaccinia virus [2]): Class III; Effects in Vaccinia assays (vaccinia virus [2]): had effects; Plaque phenotype due to drug treatment (FIGS. 1, 2, 4) (vaccinia virus [2]): small plaques with comets; VACCINIA PLAQUE ASSAY 2 (vaccinia virus [2]): PINPOINTS
16 | Brc1cnc2c(Nc3ccc(N4CCOCC4)cc3)nccn12 [LG2-77] | (iii) | DE- LAYED CPE | – | –
17 | CC(=O)c1cccc(-c2cnc3c(Nc4ccc(N5CCOCC5)cc4)nccn23)c1 [LG2-81] | (iii) | DE- LAYED CPE | – | –
18 | Cc1ccc(NC(=O)c2ccc(CN3CCN(Cc4ccc(F)cc4)CC3)cc2)cc1Nc1nccc(-c2cccnc2)n1 [STI-F] | – | – | PINPOINT PLAQUES | Actin protein tails (vaccinia virus [4]): few actin tails; Class category of infected monolayers in plaque assay (vaccinia virus [2]): Class III; VACCINIA PLAQUE ASSAY 2 (vaccinia virus [2]): NO PLAQUES
19 | Cc1ccc(NC(=O)c2ccc(CN3CCN(C)CC3)cc2)cc1Nc1nccc(-c2cncc(-c3ccncc3)c2)n1 [StiAF3-iAR] | (ii) | ENTRY OR EGRESS INHIB- ITOR | – | –
20 | Cc1ccc(NC(=O)c2ccc(CN3CCN(C)CC3)cc2)cc1Nc1nccc(-c2cncc(-c3ccncc3)c2)n1 [WBZ-6] | – | DE- LAYED CPE | – | –
